Literature values in patent publication US5482960A, “Nonpeptide endothelin antagonists” (Warner-Lambert Company, priority 1994, dated 1996).
Where a SMILES comes first, the peptide text is derived from it. [ ]: non-standard residue; d: D form.

Experiments:
liver = conditions: cited from earlier work
small intestinal mucosa = conditions: local intra-arterial, rats; cited from earlier work
endothelin = conditions: rats; cited from earlier work
ETA [1] = conditions: following subarachnoid hemorrhage; cited from earlier work
ET receptor = conditions: allergic sheep; cited from earlier work
ETA [2] = conditions: mouse model of endotoxic shock; cited from earlier work
ETA [3] = conditions: oral; cited from earlier work

endothelin
vasoconstriction of the hepatic vasculature and hepatic glucose output (liver): sustained vasoconstriction of the hepatic vasculature and a significant increase in hepatic glucose output
small intestinal mucosal damage (small intestinal mucosa): induce small intestinal mucosal damage in rats in a dose-dependent manner

COc1cccc(Oc2c(NS(=O)(=O)c3ccc(C(C)(C)C)cc3)ncnc2OCCO)c1 [RO 46-2005]
efficacy in models of acute renal ischemia and subarachnoid hemorrhage (endothelin): effective in models of acute renal ischemia and subarachnoid hemorrhage in rats

CC(C)C[C@@H]1NC(=O)[C@@H](C(C)C)NC(=O)[C@@H]2CCCN2C(=O)[C@@H](CC(=O)O)NC(=O)[C@@H](Cc2c[nH]c3ccccc23)NC1=O [BQ-123] (cyclo(L[dW][dD]P[dV]))
early cerebral vasospasm (ETA [1]): prevent early cerebral vasospasm following subarachnoid hemorrhage
block of ET-1 induced bronchoconstriction and tracheal smooth muscle contraction (ET receptor): block ET-1 induced bronchoconstriction and tracheal smooth muscle contraction
survival rate (ETA [2]): significantly increased the survival rate

Cc1noc(NS(=O)(=O)c2cccc3c(N(C)C)cccc23)c1C [5-(Dimethylamino)-N-(3,4-dimethyl-5-isoxazolyl)-1-naphthalenesulfonamide]
antihypertensive effect (ETA [3]): demonstrated an oral antihypertensive effect
